According to paper PMC10320002, “In vitro antiproliferative, anti-inflammatory effects and molecular docking studies of natural compounds isolated from Sarcocephalus pobeguinii (Hua ex Pobég)” (Frontiers in Pharmacology, 2023):
“And” between values parts separate entries of the source, which are not always exact repeats. Equal entries are not always repeated. Where two headings read alike, the source gives them in different places.

Columns and labels:
15-LOX = biological target: T1, 15-LOX (Glycine max, UniProt P08170); assay: Soybean 15-LOX inhibitory assay (FOX); type: biochemical; conditions: linoleic acid 140 μM, pH 7.4, 25°C
T1 construct: purchased Merck, Darmstadt, Germany
T1 sequence (P08170 1-839): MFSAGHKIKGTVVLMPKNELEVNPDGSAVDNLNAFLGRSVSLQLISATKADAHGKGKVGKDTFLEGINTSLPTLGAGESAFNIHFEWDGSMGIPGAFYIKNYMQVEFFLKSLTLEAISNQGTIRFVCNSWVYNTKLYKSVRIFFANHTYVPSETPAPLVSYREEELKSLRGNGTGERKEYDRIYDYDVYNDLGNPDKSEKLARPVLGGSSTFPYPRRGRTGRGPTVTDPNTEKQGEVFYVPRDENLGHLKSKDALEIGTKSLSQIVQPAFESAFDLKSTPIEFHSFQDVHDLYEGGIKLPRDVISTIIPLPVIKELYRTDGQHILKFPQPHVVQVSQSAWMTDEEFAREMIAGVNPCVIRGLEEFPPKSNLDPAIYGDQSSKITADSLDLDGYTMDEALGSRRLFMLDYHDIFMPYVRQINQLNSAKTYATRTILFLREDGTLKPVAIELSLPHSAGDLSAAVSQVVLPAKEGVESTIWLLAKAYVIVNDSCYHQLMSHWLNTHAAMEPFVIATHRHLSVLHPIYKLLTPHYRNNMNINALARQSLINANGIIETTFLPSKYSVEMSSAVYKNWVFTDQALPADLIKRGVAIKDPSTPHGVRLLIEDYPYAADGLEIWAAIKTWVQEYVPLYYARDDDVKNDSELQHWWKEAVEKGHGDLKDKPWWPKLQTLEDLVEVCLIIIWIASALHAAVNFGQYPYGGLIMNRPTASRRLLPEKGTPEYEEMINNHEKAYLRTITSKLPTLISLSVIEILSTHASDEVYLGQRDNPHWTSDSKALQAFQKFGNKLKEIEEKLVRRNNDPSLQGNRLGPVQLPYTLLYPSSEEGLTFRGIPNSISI
Experimental: This assay is based on the formation of the Fe^3+/xylenol orange (FOX) complex with maximal absorption at 560 nm ([Pinto et al., 2007]). Forty microliters of 15-LOX (final concentration: 200 UI/mL) from Glycine max (Merck, Darmstadt, Germany) was incubated with 20 µL of tested samples (100, 50, 25, 10, and 5 μg/mL) at 25°C for 5 min, with DMSO at 10% (v/v) being used as negative control. Thereafter, 40 µL of linoleic acid (final concentration, 140 μM) prepared in Tris-HCl buffer (50 mM, pH 7.4) was added, and the plates were further incubated at 25°C for 20 min in the dark. The assay was terminated by adding 100 μL of FOX reagent [sulfuric acid (30 mM), xylenol orange (100 μM), ferrous II) sulfate (100 μM), dissolved in methanol/water (9:1)], followed by the incubation of the plates at 25°C for 30 min in the dark. Finally, the absorbance was measured at 560 nm on a microplate reader (Epoch, BioTek, Winooski, United States of America). The blanks were made in the same way as tested samples except that the substrate was added after the FOX reagent. The 15-LOX inhibitory activity was calculated by using the following formula: 15−LOX inhibitory activity %=100−Abs sample−Abs blank/Abs negative control−Abs blank×100 (1)

[1] = test system: cancer cells (MCF-7, HepG2, Caco-2 and A549) and non-cancerous Vero cells; assay: Time-dependent cytotoxic effect on cell growth (MTT); type: cell-based; conditions: 10 μg/mL; 12, 24 and 48 h
Experimental: The cancerous and non-cancerous cells were seeded at a density of 10^4 cells per well in 96-well microtiter plates, and they were incubated overnight at 37°C with 5% CO2 in a 5% CO2 humidified environment in order to allow the attachment of cells at the bottom of the plates. Then, the cells were exposed to increasing concentrations of compounds (100, 50, 25, 10 and 5 μg/mL) dissolved in dimethyl sulfoxide (DMSO) and further diluted in fresh culture medium. In this assay, the final concentration of DMSO in the culture medium was 0.5% used as negative control while doxorubicin hydrochloride (Pfizer, United States of America) was used as a positive control. […] After 4 h of incubation, the medium was gently removed, and the formazan crystals were solubilized in 50 µL of DMSO. The absorbance was measured at 570 nm after shaking for 1 min on a microplate reader (Synergy Multi-Mode Reader, BioTek, Winooski, United States of America).

[2] = test system: caspase-3/-7 activity in MCF-7 cells; assay: Caspase-3/-7 luminescence assay (Caspase-Glo 3/7) in MCF-7 cells; type: cell-based, human; conditions: 2×IC50, 18 h, vs cells treated with DMSO 0.5%
Experimental: The effect of the most bioactive compounds (2), (6) and (9) were used for the analysis of caspase-3 and caspase-7 activities on MCF-7 cells by using the Caspase-Glo® 3/7 kit (Promega, Germany). In fact, MCF-7 cells were seeded at a density of 10^4 cells per well on 96-well microtiter plates, and the plates were incubated overnight at 37 °C in a 5% CO2 humidified environment. […] Thereafter, 100 µL of Caspase-Glo® 3/7 reagent was added to each well, mixed and incubated in the dark for 1 h at room temperature. The luminescence was then measured on a microplate reader (Synergy Multi-Mode Reader, BioTek, Winooski, United States of America). The caspase-3/-7 activity was expressed as fold change of cells treated with 0.5% DMSO (control).

[3] = test system: human lung cancer cells A549; design: method as in Gauthier et al., 2009; Gao et al., 2016; conditions: ref Gauthier et al., 2009; Gao et al., 2016; cited from earlier work
[4] = test system: human normal skin fibroblasts (WS1) cell lines; design: method as in Gauthier et al., 2009; conditions: ref Gauthier et al., 2009; cited from earlier work
[5] = read-out: IC50 values 15-LOX (converted)

Row | SMILES | IC50 (15-LOX; [5]) | IC50 (15-LOX; IC50 values 15-LOX) | time-dependent cytotoxic effect on cell growth [1] | fold change in the activation of caspase-3/-7 activity [2] | IC50 [3] | IC50 [4]
1 | C[C@]12COCC=C1C[C@H]1c3[nH]c4ccccc4c3CCN1C2=O [Compound 10, latifoliamide C] | 253 µM | – | – | – | – | –
2 | CC1(C)CC[C@]2(C(=O)O)CC[C@]3(C)C(=CC[C@@H]4[C@@]5(C)CC[C@H](O)[C@@](C)(CO)[C@@H]5CC[C@]43C)[C@@H]2C1 [Compound 2, hederagenin] | – | 28.4 µM and 28.2 µM | time-dependent manner | up to 2 fold | 26.3 µM and 39 µM | 77 µM
3 | C[C@@H]1CC[C@]2(C(=O)O)CC[C@]3(C(=O)O)C(=CCC4[C@@]5(C)CC[C@H](O[C@H]6O[C@H](C)[C@@H](O)[C@H](O)[C@H]6O)C(C)(C)C5CC[C@]43C)C2[C@H]1C (stereo partly drawn) [Compound 6, quinovic acid 3-O-[α-D-quinovopyranoside]] | > 158 µM | – | – | up to 2 fold | – | –
4 | C[C@@H]1CC[C@]2(C(=O)O)CC[C@]3(C(=O)O)C(=CCC4[C@@]5(C)CC[C@H](O[C@@H]6O[C@H](C)[C@@H](O)[C@H](O)[C@H]6O)C(C)(C)C5CC[C@]43C)C2[C@H]1C (stereo partly drawn) [Compound 9, quinovic acid 3-O-[β-D-quinovopyranoside]] | 118 µM | – | – | – | – | –
